{"source": "paper PMC3269340", "about": "“Pharmacokinetics of memantine in rats and mice” (PLoS Currents, 2012)", "experiment": "Pharmacokinetics in rats after single iv, po or sc dose (plasma and brain)", "type": "in vivo, Sprague-Dawley rats", "conditions": "for half-life / AUC(0-inf) / Cmax: plasma", "description": "Sprague Dawley (SD) rats (138 adult males), and C57Bl/6 mice (140 adult males), were obtained (Hilltop Laboratories, Scottsdale, PA); 123 per species were used in the study and the remainder provided blank matrix. Animals were individually identified by tail markings and were acclimated to the study environment for 16-21 days prior to dose administration. Animals were individually housed in suspended wire caging, and were kept on a 12h/12h light/dark cycle except when interrupted for study procedures. Average room temperature was regulated in the range 18 to 29°C, average relative humidity of 30-70%, and an average daily airflow >10 fresh air changes/h. Animals were fed LabDiet^Ò Certified Rodent Diet 5002 Meal food ad libitum, except during fasting prior to dose administration, and had access to water ad libitum.\n[…] […] The concentration of memantine for the same dose level administered to mice was 0.2 mg eq./mL, and the dose volume was 5 mL/kg. The concentration of memantine in the 10mg eq./kg po and sc solutions was 5 mg eq./mL and the dose volume was 2 mL/kg for both rats and mice.\nDetails of the dose administration, body weights, clinical observations, plasma and brain sample collection and preparation are not shown in this report but are available upon request. Blood (for preparation of plasma) and brain samples were collected at 0.08, 0.25, 0.5, 1, 2, 4, 8, and 24h post-dose.\nSince all time points were terminal, mean memantine concentrations per time point were used to calculate the composite PK parameters by non-compartmental analysis using WinNonlin program, version 5.2 (Pharsight Corp., Mountain View, California). A model was selected based on the vascular (iv bolus) or extravascular (po or sc) routes of administration. For the iv route, plasma concentration at time zero was back extrapolated from the first two observed post dose plasma concentrations. For the po and sc routes, concentration at time zero was assumed to be zero. Plasma and tissue concentrations below the limit of quantitation were treated as absent samples for the purpose of calculating the mean plasma concentration values or for calculating PK parameters.\nThe area under the plasma concentration versus time curve (AUC) was calculated using the linear trapezoidal method (linear interpolation). When appropriate, the terminal elimination phase of the PK profile was estimated based on the best fit (r^2) using at least the last three observed concentrations. PK parameters describing the systemic exposure of memantine in plasma and brain were estimated from observed (rather than predicted) plasma/brain concentrations, the dosing regimen, the AUC, and the terminal elimination phase rate constant (kel) for each group. The portion of the AUC from the last measurable concentration to infinity was estimated from the equation Ct/kel, where Ct represents the last measurable concentration. The extrapolated portion of the AUC was used for the determination of AUC0-∞. The percent bioavailability (%F) was calculated by dividing the dose normalized extravascular plasma AUC0-∞ by the dose normalized iv plasma AUC0-∞ times 100. The bioavailability calculations assumed concentrations were in the linear range.\nConcentrations of memantine in rat and mouse plasma and brain were determined using an LC-MS/MS assay developed at ABC Laboratories.", "key": {"[1]": {"conditions": "rat brain, po dose increase from 1.22 to 10 mg/kg"}, "[2]": {"conditions": "rat plasma, po dose increase from 1.22 to 10 mg/kg"}}, "note": "Where two headings read alike, the source gives them in different places.", "data": [{"smiles": "CC12CC3CC(C)(C1)CC(N)(C3)C2", "note": "[memantine]", "values": [{"measurement": "half-life", "setting": "male, Sprague-Dawley, rat, iv, 1 mg/kg, rat, printed under 1 mg/kg (iv), cross-species summary, read-out: t 1/2 (converted)", "value": 4, "unit": "h"}, {"measurement": "AUC(0-inf)", "setting": "male, Sprague-Dawley, rat, iv, 1.22 mg/kg, rat plasma, IV 1.22 mg eq./kg, read-out: AUC(0-∞)", "value": 1.64, "unit": "µM·h"}, {"measurement": "half-life", "setting": "male, Sprague-Dawley, rat, iv, 1.22 mg/kg, rat plasma, IV 1.22 mg eq./kg, read-out: Half-life (t½) (converted)", "value": 1.9, "unit": "h"}, {"measurement": "AUC(0-inf)", "setting": "male, Sprague-Dawley, rat, po, 1 mg/kg, rat, dose 1 mg/kg, single dose in solution (oral values of Table 1), read-out: AUC inf", "value": 0.6, "unit": "µM·h"}, {"measurement": "Cmax", "setting": "male, Sprague-Dawley, rat, po, 1 mg/kg, rat, dose 1 mg/kg, single dose in solution, read-out: C max", "value": 100, "unit": "nM"}, {"measurement": "AUC(0-inf)", "setting": "male, Sprague-Dawley, rat, po, 1.22 mg/kg, rat plasma, PO 1.22 mg eq./kg, read-out: AUC(0-∞)", "value": 0.594, "unit": "µM·h"}, {"measurement": "half-life", "setting": "male, Sprague-Dawley, rat, po, 1.22 mg/kg, rat plasma, PO 1.22 mg eq./kg, read-out: Half-life (t½) (converted)", "value": 2.23, "unit": "h"}, {"measurement": "Cmax", "setting": "male, Sprague-Dawley, rat, po, 1.22 mg/kg, rat plasma, PO 1.22 mg eq./kg, read-out: Observed Cmax", "value": 109, "unit": "nM"}, {"measurement": "AUC(0-inf)", "setting": "male, Sprague-Dawley, rat, po, 10 mg/kg, rat plasma, PO 10.0 mg eq./kg, read-out: AUC(0-∞)", "value": 11.4, "unit": "µM·h"}, {"measurement": "half-life", "setting": "male, Sprague-Dawley, rat, po, 10 mg/kg, rat plasma, PO 10.0 mg eq./kg, read-out: Half-life (t½) (converted)", "value": 3.92, "unit": "h"}, {"measurement": "Cmax", "setting": "male, Sprague-Dawley, rat, po, 10 mg/kg, rat plasma, PO 10.0 mg eq./kg, read-out: Observed Cmax", "value": 3700, "unit": "nM"}, {"measurement": "AUC(0-inf)", "setting": "male, Sprague-Dawley, rat, po, 10 mg/kg, rat, dose 10 mg/kg, single dose in solution (oral values of Table 1), read-out: AUC inf", "value": 11.4, "unit": "µM·h"}, {"measurement": "Cmax", "setting": "male, Sprague-Dawley, rat, po, 10 mg/kg, rat, dose 10 mg/kg, single dose in solution, read-out: C max", "value": 3700, "unit": "nM"}, {"measurement": "AUC(0-inf)", "setting": "male, Sprague-Dawley, rat, sc, 1 mg/kg, rat plasma, SC 1.0 mg eq./kg, read-out: AUC(0-∞)", "value": 1.69, "unit": "µM·h"}, {"measurement": "half-life", "setting": "male, Sprague-Dawley, rat, sc, 1 mg/kg, rat plasma, SC 1.0 mg eq./kg, read-out: Half-life (t½) (converted)", "value": 1.81, "unit": "h"}, {"measurement": "Cmax", "setting": "male, Sprague-Dawley, rat, sc, 1 mg/kg, rat plasma, SC 1.0 mg eq./kg, read-out: Observed Cmax", "value": 985, "unit": "nM"}, {"measurement": "AUC(0-inf)", "setting": "male, Sprague-Dawley, rat, sc, 10 mg/kg, rat plasma, SC 10.0 mg eq./kg, read-out: AUC(0-∞)", "value": 25.8, "unit": "µM·h"}, {"measurement": "half-life", "setting": "male, Sprague-Dawley, rat, sc, 10 mg/kg, rat plasma, SC 10.0 mg eq./kg, read-out: Half-life (t½) (converted)", "value": 2.59, "unit": "h"}, {"measurement": "Cmax", "setting": "male, Sprague-Dawley, rat, sc, 10 mg/kg, rat plasma, SC 10.0 mg eq./kg, read-out: Observed Cmax", "value": 6190, "unit": "nM"}, {"measurement": "Tmax", "setting": "male, Sprague-Dawley, subcutaneous, rat plasma, po and sc, all dose levels, read-out: Tmax after extravascular administration", "value": "0.5 to 1", "unit": "h"}, {"measurement": "Cmax/Cmin ratios", "setting": "rat", "value": "> 100"}, {"measurement": "total systemic clearance, times higher than GFR", "setting": "rat", "value": "~ 13 fold"}, {"measurement": "AUCnorm", "setting": "rat brain, IV 1.22 mg eq./kg", "value": "39040 (nM hr/kg) /(kg/mg)"}, {"measurement": "Observed CmaxNorm", "setting": "rat brain, IV 1.22 mg eq./kg", "value": "9003 nM/ (mg/kg)"}, {"measurement": "AUCnorm", "setting": "rat brain, PO 1.22 mg eq./kg", "value": "17310 (nM hr/kg) /(kg/mg)"}, {"measurement": "Observed CmaxNorm", "setting": "rat brain, PO 1.22 mg eq./kg", "value": "1775 nM/ (mg/kg)"}, {"measurement": "AUCnorm", "setting": "rat brain, PO 10.0 mg eq./kg", "value": "25620 (nM hr/kg) /(kg/mg)"}, {"measurement": "Observed CmaxNorm", "setting": "rat brain, PO 10.0 mg eq./kg", "value": "2543 nM/ (mg/kg)"}, {"measurement": "AUCnorm", "setting": "rat brain, SC 1.0 mg eq./kg", "value": "52980 (nM hr/kg) /(kg/mg)"}, {"measurement": "Observed CmaxNorm", "setting": "rat brain, SC 1.0 mg eq./kg", "value": "10620 nM/ (mg/kg)"}, {"measurement": "AUCnorm", "setting": "rat brain, SC 10.0 mg eq./kg", "value": "44160 (nM hr/kg) /(kg/mg)"}, {"measurement": "Observed CmaxNorm", "setting": "rat brain, SC 10.0 mg eq./kg", "value": "7544 nM/ (mg/kg)"}, {"measurement": "AUC0-∞ increase, fold more than dose proportional", "setting": "[1]", "value": 1.5, "unit": "fold"}, {"measurement": "Cmax increase, fold more than dose proportional", "setting": "[1]", "value": "~ 1.5 fold"}, {"measurement": "Cmax and AUC0-∞ increase relative to dose proportional", "setting": "rat brain, sc dose increase from 1 to 10 mg/kg, slightly less than dose proportional", "value": "0.7-0.8 fold"}, {"measurement": "AUCnorm", "setting": "rat plasma, IV 1.22 mg eq./kg", "value": "1342 (nM hr/kg) /(kg/mg)"}, {"measurement": "AUCnorm", "setting": "rat plasma, PO 1.22 mg eq./kg", "value": "486.9 (nM hr/kg) /(kg/mg)"}, {"measurement": "Observed CmaxNorm", "setting": "rat plasma, PO 1.22 mg eq./kg", "value": "89.07 nM/ (mg/kg)"}, {"measurement": "AUCnorm", "setting": "rat plasma, PO 10.0 mg eq./kg", "value": "1139 (nM hr/kg) /(kg/mg)"}, {"measurement": "Observed CmaxNorm", "setting": "rat plasma, PO 10.0 mg eq./kg", "value": "369.6 nM/ (mg/kg)"}, {"measurement": "AUCnorm", "setting": "rat plasma, SC 1.0 mg eq./kg", "value": "1686 (nM hr/kg) /(kg/mg)"}, {"measurement": "Observed CmaxNorm", "setting": "rat plasma, SC 1.0 mg eq./kg", "value": "985.0 nM/ (mg/kg)"}, {"measurement": "AUCnorm", "setting": "rat plasma, SC 10.0 mg eq./kg", "value": "2581 (nM hr/kg) /(kg/mg)"}, {"measurement": "Observed CmaxNorm", "setting": "rat plasma, SC 10.0 mg eq./kg", "value": "618.9 nM/ (mg/kg)"}, {"measurement": "AUC0-∞ increase, fold more than dose proportional", "setting": "[2]", "value": 2.3, "unit": "fold"}, {"measurement": "Cmax increase, fold more than dose proportional", "setting": "[2]", "value": "~ 4 fold"}, {"measurement": "AUC0-∞ increase, fold more than dose proportional", "setting": "rat plasma, sc dose increase from 1 to 10 mg/kg", "value": 1.5, "unit": "fold"}, {"measurement": "elimination half-life", "setting": "rat, all dose routes and levels (plasma; b142 also brain)", "value": "< 4", "unit": "h"}, {"measurement": "C max/ C min ratio", "setting": "rat, dose 10 mg/kg", "value": 123}, {"measurement": "delay in Tmax for brain compared to plasma", "setting": "rat, same dose level and route", "value": "0.25 to 1.5", "unit": "h"}, {"measurement": "Contribution of active transport to clearance", "setting": "rodent (rat)", "value": "> 100", "unit": "%"}, {"measurement": "brain elimination half-lives after extravascular administrations", "setting": "summary for rats and mice, rat", "value": "2.28 – 3.8"}]}]}
